Experimental data taken from US8293919B2, “Antibacterial sulfone and sulfoxide substituted heterocyclic urea compounds” (Crestone, Inc., priority 2007, dated 2012).

How the values were obtained:
Format in all cases: cell-based
S. aureus = experiment: Bactericidal activity
E. faecalis = experiment: Bactericidal activity
E. faecium = experiment: Bactericidal activity
S. epidermidis = experiment: Bactericidal activity
S. pyogenes = experiment: Bactericidal activity
S. pneumoniae = experiment: Bactericidal activity
[1] = tested on: macrolide-, penicillin-, and levofloxacin-resistant S. pneumoniae; experiment: Antibacterial activity against drug-resistant strains
Method: (§1) Compounds of the present invention were tested for antibacterial activity against a variety of pathogenic organisms including S. aureus, S. pneumoniae, S. pyogenes, E. faecalis, H. influenza and M. catarrhalis using a standard broth microdilution method to determine their minimum inhibitory concentrations (MICs). All compounds were tested using standard methods in accordance with CLSI guidelines (Clinical and Laboratory Standards Institute). Compounds described in Examples 1-5, 7-12, 14, 16-17, 19-30, 32-35, 37-42, 44-66, 69, 71-76, 79-84, and 87 had MIC's of 0.25-4.0 μg/mL against some strains of the major Gram-positive organisms S. aureus, S. pneumoniae, S. pyogenes, and E. faecalis.
(§2) Compounds of the present invention were not compromised by existing resistance to all drug classes tested, including β-lactams, glycopeptides, oxazolidinones, macrolides, and fluoroquinolones. In particular, the compound described in Example 9 was active against methicillin- (oxacillin-) resistant S. aureus (MRSA), vancomycin-intermediate S. aureus (VISA), linezolid-resistant S. aureus, methicillin- (oxacillin-) resistant and mupirocin resistant S. epidermidis, macrolide-resistant S. pyogenes, macrolide-, penicillin-, and levofloxacin-resistant S. pneumoniae, vancomycin-, macrolide-, and ciprofloxacin-resistant E. faecalis (VRE) and vancomycin-, macrolide-, and ciprofloxacin-resistant E. faecium.

[2] = tested on: macrolide-resistant S. pyogenes; experiment: as above
Method: as §1, §2

[3] = tested on: methicillin- (oxacillin-) resistant and mupirocin resistant S. epidermidis; experiment: as above
Method: as §1, §2

[4] = tested on: resistant S. aureus (MRSA, VISA, linezolid-resistant); experiment: as above
Method: as §1, §2

[5] = tested on: vancomycin-, macrolide-, and ciprofloxacin-resistant E. faecalis (VRE); experiment: as above
Method: as §1, §2

[6] = tested on: vancomycin-, macrolide-, and ciprofloxacin-resistant E. faecium; experiment: as above
Method: as §1, §2

[7] = tested on: clinically relevant resistant strains; experiment: MIC in clinically relevant drug-resistant strains (all species together)
Method: as §1, §2

CCCS(=O)(=O)Cc1csc(NC(=O)NCc2ccc(Cl)c(Cl)c2)n1 [Example 9, 1-(3,4-dichlorobenzyl)-3-(4-(propylsulfonylmethyl)thiazol-2-yl)urea]
0.5 to 4 µg/mL: MIC ([7]; clinically relevant resistant strains)
comparable: MICs in sensitive versus drug resistant strains ([7]; sensitive versus drug resistant strains)
bactericidal: bactericidal effect (S. aureus) | bactericidal effect (E. faecalis) | bactericidal effect (E. faecium) | bactericidal effect (S. epidermidis) | bactericidal effect (S. pyogenes) | bactericidal effect (S. pneumoniae)
active: activity against resistant strain [1] | activity against resistant strain [2] | activity against resistant strain [3] | activity against resistant strain ([4]; linezolid-resistant S. aureus) | activity against resistant strain ([4]; methicillin- (oxacillin-) resistant S. aureus (MRSA)) | activity against resistant strain ([4]; vancomycin-intermediate S. aureus (VISA)) | activity against resistant strain [5] | activity against resistant strain [6]
